Source: patent publication US6403123B1, “Method for topical treatment of anthralin-responsive dermatological disorders” (priority 2000, dated 2002)

How the values were obtained:
Format in all cases: in vivo, human
psoriasis [1] = assay: Earlier or concurrent treatment of the psoriasis subjects with other drugs (case histories); conditions: person
[2] = Staining of skin and clothing and skin irritation during the topical anthralin method
Excerpt: As the anthralin formulation penetrates into the lesions or evaporates, any unabsorbed anthralin formulation on the lesion surface can be wiped off with a tissue, paper towel, cloth or the like. Thereafter, a wax formulation is applied to the lesion to cover the anthralin formulation-treated area. The wax formulation may be applied using any application method that allows for applying a relatively uniform layer of the wax formulation. Such application methods include, but are not limited to, spraying, roll-on, and application by brush, cotton gauze, pad, sponge-tipped applicator, and the like. As the vehicle(s) of the wax formulation evaporate, a thin film of wax will be formed to cover the lesion surface of the involved area. There are two advantages to the presence of the wax film: (a) the thin wax film will act as an occlusive backing to drive the penetration of anthralin deeper into the lesions; and (b) the wax film will prevent any trace amounts of anthralin from contacting clothing or other objects.
Finally, a powder, such as talc, may then be optionally applied over the wax film in order to eliminate any remaining anthralin thereby further ensuring that staining of clothing or other objects is avoided. […]

psoriasis [3] = assay: Topical treatment of psoriasis patients by the method: anthralin formulation, then wax formulation, then talc powder; conditions: person
Excerpt: In accordance with the present invention, the anthralin formulation is first topically applied to the involved skin area, or skin lesions, such as psoriatic plaques or eczema, of a patient in need of such treatment. […] The anthralin formulation may be applied by any means which provides a relatively uniform layer of anthralin formulation on the involved area. Suitable means of application include spraying, roll-on, and application using a brush, saturated cotton gauze, pad, sponge-tipped applicator, and the like. As the anthralin formulation penetrates into the lesions or evaporates, any unabsorbed anthralin formulation on the lesion surface can be wiped off with a tissue, paper towel, cloth or the like. Thereafter, a wax formulation is applied to the lesion to cover the anthralin formulation-treated area. The wax formulation may be applied using any application method that allows for applying a relatively uniform layer of the wax formulation. Such application methods include, but are not limited to, spraying, roll-on, and application by brush, cotton gauze, pad, sponge-tipped applicator, and the like. As the vehicle(s) of the wax formulation evaporate, a thin film of wax will be formed to cover the lesion surface of the involved area. […] Finally, a powder, such as talc, may then be optionally applied over the wax film in order to eliminate any remaining anthralin thereby further ensuring that staining of clothing or other objects is avoided. […] The powder may be applied by dusting using a puff or pad, sprinkling, spreading and the like. The method was typically carried out as follows. A liquid anthralin formulation as formulated in Example 1(A) was topically applied to skin lesions once to twice daily by the patient using a saturated cotton pad. As the anthralin penetrated into the lesions and the solvents evaporated, a tissue or paper towel was used to wipe off excess materials from the surface of the lesions. The wax formulation as formulated in Example 2(B) was topically applied to the lesions. […]

CN(Cc1cnc2nc(N)nc(N)c2n1)c1ccc(C(=O)N[C@@H](CCC(=O)O)C(=O)O)cc1 [methotrexate]
improvement of lesions (psoriasis [1]; Example 5, generalized plaque psoriasis, intramuscular injections every one to four weeks): approximately 50%

O=C1c2c(O)cccc2Cc2cccc(O)c21 [anthralin, 1,8,9,-anthracenetriol]
staining of clothes ([2]; Example 10, 0.25% anthralin, wax formulation Example 2(B), fine talc, twice a day for four weeks): no staining of their clothes | skin irritation and staining to the skin and clothing ([2]; typical case, about 0.1% to about 0.2% by weight anthralin, once or twice daily on chronic psoriatic plaques): without skin irritation and staining to the skin and clothing | improvement of the psoriasis (psoriasis [3]; Example 6, anthralin 0.2% increased to 1% by weight, once daily, maintained over one year): approximately 90% | skin free of psoriasis (psoriasis [3]; Example 7, anthralin 0.3% increased to 0.6% by weight, once daily, after four months): approximately 90% | improvement of psoriatic lesions (psoriasis [3]; Example 8, small plaque psoriasis, 3% anthralin formulation once daily, after four months): approximately 75%

C=C1/C(=C\C=C2/CCC[C@]3(C)[C@@H]([C@H](C)/C=C/[C@@H](O)C4CC4)CC[C@@H]23)C[C@@H](O)C[C@@H]1O [calcipotriene]
response of plaque psoriasis (psoriasis [1]; Example 6, plaque psoriasis for four years, topical treatment): did not improve well | response of generalized small plaque psoriasis (psoriasis [1]; Example 7, psoriasis for seventeen years, topical treatment): did not respond
